Test results: ChEMBL document CHEMBL4507259 (2021)

Legend:
[1] = biological target: Tyrosine-protein kinase CSK (Homo sapiens) (UniProt P41240); details: Compound concentration 1000.0 nM
[2] = test system: Epidermal growth factor receptor (Homo sapiens), P00533 [G719S]; details: Compound concentration 1000.0 nM
[3] = biological target: MAP/microtubule affinity-regulating kinase 4 (Homo sapiens) (UniProt Q96L34); details: Compound concentration 1000.0 nM
[4] = biological target: D(1A) dopamine receptor (Homo sapiens) (UniProt P21728); details: Compound concentration 10.0 uM
D(1A) dopamine receptor (Homo sapiens), sequence (P21728 whole entry): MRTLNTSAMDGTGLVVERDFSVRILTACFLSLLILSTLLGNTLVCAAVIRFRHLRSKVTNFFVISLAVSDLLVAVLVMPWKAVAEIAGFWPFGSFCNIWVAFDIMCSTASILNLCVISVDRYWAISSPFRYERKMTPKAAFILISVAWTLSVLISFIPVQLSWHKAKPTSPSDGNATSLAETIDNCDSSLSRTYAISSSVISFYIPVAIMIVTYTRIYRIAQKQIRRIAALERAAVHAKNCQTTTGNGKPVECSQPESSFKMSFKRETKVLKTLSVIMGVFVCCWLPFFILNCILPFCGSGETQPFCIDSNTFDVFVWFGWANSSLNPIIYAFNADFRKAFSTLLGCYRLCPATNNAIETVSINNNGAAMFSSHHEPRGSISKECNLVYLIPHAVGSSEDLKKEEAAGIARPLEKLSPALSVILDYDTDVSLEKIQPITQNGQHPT

[5] = biological target: High affinity nerve growth factor receptor (Homo sapiens) (UniProt P04629); details: Compound concentration 1000.0 nM
[6] = biological target: Tyrosine-protein kinase FRK (Homo sapiens) (UniProt P42685); details: Compound concentration 1000.0 nM
[7] = biological target: Tyrosine-protein kinase receptor UFO (Homo sapiens) (UniProt P30530); details: Compound concentration 1000.0 nM
Tyrosine-protein kinase receptor UFO (Homo sapiens), sequence (P30530 whole entry): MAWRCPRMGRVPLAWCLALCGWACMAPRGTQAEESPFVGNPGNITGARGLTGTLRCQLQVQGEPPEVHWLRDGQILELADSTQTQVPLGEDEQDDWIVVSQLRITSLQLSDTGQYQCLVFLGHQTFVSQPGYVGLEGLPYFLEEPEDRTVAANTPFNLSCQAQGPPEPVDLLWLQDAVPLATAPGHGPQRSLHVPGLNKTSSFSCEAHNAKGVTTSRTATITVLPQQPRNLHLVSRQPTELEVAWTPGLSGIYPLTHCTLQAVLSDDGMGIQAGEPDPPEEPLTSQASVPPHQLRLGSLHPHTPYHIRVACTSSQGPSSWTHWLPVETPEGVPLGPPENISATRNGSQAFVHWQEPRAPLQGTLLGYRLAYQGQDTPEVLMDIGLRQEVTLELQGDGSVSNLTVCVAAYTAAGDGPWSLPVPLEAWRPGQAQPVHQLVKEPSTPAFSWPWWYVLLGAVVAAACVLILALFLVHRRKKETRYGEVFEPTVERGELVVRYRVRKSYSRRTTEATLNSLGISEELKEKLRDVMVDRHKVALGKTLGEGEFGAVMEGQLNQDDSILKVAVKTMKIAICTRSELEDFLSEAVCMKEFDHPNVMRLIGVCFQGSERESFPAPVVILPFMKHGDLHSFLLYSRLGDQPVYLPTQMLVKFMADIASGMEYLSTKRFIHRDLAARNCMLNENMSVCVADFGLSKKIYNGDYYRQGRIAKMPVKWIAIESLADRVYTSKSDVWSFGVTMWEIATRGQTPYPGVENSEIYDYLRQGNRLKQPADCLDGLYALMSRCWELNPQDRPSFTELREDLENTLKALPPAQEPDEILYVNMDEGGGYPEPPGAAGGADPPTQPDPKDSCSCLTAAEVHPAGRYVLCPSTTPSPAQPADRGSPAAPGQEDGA

[8] = biological target: Tyrosine-protein kinase Lck (Homo sapiens) (UniProt P06239); details: Compound concentration 1000.0 nM
Tyrosine-protein kinase Lck (Homo sapiens), sequence (P06239 2-509 limits assumed): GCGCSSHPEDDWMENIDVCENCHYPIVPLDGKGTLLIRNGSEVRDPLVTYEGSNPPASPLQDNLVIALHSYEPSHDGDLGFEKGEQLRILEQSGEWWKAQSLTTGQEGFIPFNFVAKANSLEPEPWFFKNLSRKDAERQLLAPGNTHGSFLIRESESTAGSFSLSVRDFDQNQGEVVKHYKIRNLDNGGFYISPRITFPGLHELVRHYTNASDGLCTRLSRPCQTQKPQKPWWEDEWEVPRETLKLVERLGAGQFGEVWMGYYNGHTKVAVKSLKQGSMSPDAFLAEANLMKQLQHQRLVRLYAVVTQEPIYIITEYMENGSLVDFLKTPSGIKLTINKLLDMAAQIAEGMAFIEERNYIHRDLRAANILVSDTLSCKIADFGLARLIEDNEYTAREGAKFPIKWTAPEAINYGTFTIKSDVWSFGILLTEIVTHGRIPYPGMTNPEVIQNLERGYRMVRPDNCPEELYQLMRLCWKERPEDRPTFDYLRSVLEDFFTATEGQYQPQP

[9] = test system: Hepatocyte growth factor receptor (Homo sapiens), P08581 [M1250T]; details: Compound concentration 1000.0 nM
[10] = biological target: Calcium/calmodulin-dependent protein kinase type 1G (Homo sapiens) (UniProt Q96NX5); details: Compound concentration 1000.0 nM
[11] = biological target: Serine/threonine-protein kinase pim-3 (Homo sapiens) (UniProt Q86V86); details: Compound concentration 1000.0 nM
[12] = biological target: Activin receptor type-1-like (Homo sapiens) (UniProt P37023); details: Compound concentration 1000.0 nM
[13] = biological target: T1, Muscarinic acetylcholine receptor M2 (Homo sapiens) (UniProt P08172); experiment: M2 (h) CEREP ligand profiling; details: filed as antagonist, Compound concentration 10.0 uM
T1 sequence (whole entry): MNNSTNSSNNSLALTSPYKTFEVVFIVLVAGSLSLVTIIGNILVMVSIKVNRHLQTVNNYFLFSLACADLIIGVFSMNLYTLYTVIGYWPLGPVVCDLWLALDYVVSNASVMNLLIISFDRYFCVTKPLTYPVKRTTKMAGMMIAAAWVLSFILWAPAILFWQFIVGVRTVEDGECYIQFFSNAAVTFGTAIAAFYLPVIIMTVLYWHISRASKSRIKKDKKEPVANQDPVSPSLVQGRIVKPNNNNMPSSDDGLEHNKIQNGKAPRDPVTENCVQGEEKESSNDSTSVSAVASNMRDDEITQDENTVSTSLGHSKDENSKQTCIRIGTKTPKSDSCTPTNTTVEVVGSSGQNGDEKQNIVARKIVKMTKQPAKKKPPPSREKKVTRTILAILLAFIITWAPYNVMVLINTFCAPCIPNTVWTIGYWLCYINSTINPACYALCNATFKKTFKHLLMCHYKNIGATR

[14] = biological target: 5-hydroxytryptamine receptor 1D (Homo sapiens) (UniProt P28221); details: Compound concentration 10.0 uM
[15] = biological target: Type-1 angiotensin II receptor (Homo sapiens) (UniProt P30556); experiment: AT1 (h) CEREP ligand profiling; details: filed as antagonist, Compound concentration 10.0 uM
[16] = biological target: MAP kinase-interacting serine/threonine-protein kinase 2 (Homo sapiens) (UniProt Q9HBH9); details: Compound concentration 1000.0 nM
[17] = biological target: Protein kinase C epsilon type (Homo sapiens) (UniProt Q02156); details: Compound concentration 1000.0 nM
[18] = biological target: Serine/threonine-protein kinase B-raf (Homo sapiens) (UniProt P15056); details: Compound concentration 1000.0 nM
[19] = biological target: Serine/threonine-protein kinase tousled-like 2 (Homo sapiens) (UniProt Q86UE8); details: Compound concentration 1000.0 nM
[20] = biological target: Serine/threonine-protein kinase D2 (Homo sapiens) (UniProt Q9BZL6); details: Compound concentration 1000.0 nM
[21] = test system: Tyrosine-protein kinase ABL1 (Homo sapiens), P00519 [F317L]; details: Compound concentration 1000.0 nM
Tyrosine-protein kinase ABL1 (Homo sapiens), P00519 [F317L], sequence (P00519 whole entry F317L): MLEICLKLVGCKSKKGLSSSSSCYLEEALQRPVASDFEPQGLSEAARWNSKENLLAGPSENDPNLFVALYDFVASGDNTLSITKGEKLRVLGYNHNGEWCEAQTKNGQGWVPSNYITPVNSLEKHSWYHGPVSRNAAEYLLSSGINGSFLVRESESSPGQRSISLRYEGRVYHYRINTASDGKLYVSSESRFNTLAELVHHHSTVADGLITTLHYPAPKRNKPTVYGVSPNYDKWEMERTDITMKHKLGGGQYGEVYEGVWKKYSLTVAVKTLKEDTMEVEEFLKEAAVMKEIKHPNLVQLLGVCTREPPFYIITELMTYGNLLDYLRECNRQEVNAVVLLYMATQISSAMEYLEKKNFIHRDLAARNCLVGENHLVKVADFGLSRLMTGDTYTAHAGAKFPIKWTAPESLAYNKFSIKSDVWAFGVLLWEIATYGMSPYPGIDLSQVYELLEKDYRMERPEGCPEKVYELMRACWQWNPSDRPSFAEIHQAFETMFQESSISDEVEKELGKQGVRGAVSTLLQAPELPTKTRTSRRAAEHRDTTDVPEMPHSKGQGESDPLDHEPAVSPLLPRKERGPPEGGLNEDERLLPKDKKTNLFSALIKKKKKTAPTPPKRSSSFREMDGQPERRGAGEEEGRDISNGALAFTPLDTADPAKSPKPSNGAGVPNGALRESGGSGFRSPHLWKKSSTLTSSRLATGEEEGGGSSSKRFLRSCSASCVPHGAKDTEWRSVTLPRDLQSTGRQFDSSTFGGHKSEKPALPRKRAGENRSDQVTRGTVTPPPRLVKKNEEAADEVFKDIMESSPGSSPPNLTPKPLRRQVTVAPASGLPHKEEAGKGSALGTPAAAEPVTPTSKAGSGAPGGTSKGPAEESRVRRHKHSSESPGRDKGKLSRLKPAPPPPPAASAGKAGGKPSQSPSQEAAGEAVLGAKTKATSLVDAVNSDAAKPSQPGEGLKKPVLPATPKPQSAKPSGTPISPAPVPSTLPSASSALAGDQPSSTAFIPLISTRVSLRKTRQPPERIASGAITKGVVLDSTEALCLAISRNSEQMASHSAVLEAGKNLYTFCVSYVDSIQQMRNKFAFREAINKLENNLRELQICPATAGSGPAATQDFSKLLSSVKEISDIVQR

[22] = biological target: Cannabinoid receptor 1 (Homo sapiens) (UniProt P21554); experiment: CB1 (h) CEREP ligand profiling; details: filed as agonist, Compound concentration 10.0 uM
[23] = biological target: Sodium-dependent noradrenaline transporter (Homo sapiens) (UniProt P23975); experiment: norepinephrine transporter (h) CEREP ligand profiling; details: filed as antagonist, Compound concentration 10.0 uM
[24] = biological target: Casein kinase II subunit alpha (Homo sapiens) (UniProt P68400); details: Compound concentration 1000.0 nM
[25] = biological target: Serine/threonine-protein kinase PAK 5 (Homo sapiens) (UniProt Q9P286); details: Compound concentration 1000.0 nM
[26] = biological target: Serine/threonine-protein kinase/endoribonuclease IRE1 (Homo sapiens) (UniProt O75460); details: Compound concentration 1000.0 nM
[27] = test system: Phosphatidylinositol 4,5-bisphosphate 3-kinase catalytic subunit alpha isoform (Homo sapiens), P42336 [H1047L]; details: Compound concentration 1000.0 nM
[28] = biological target: D(2) dopamine receptor (Homo sapiens) (UniProt P14416); experiment: D2S (h) CEREP ligand profiling; details: filed as antagonist, Compound concentration 10.0 uM
[29] = biological target: Cyclin-dependent kinase 19 (Homo sapiens) (UniProt Q9BWU1); details: Compound concentration 1000.0 nM
[30] = biological target: Tyrosine-protein kinase ZAP-70 (Homo sapiens) (UniProt P43403); details: Compound concentration 1000.0 nM
[31] = biological target: Calcium/calmodulin-dependent protein kinase kinase 2 (Homo sapiens) (UniProt Q96RR4); details: Compound concentration 1000.0 nM
Calcium/calmodulin-dependent protein kinase kinase 2 (Homo sapiens), sequence (Q96RR4 2-588 limits assumed): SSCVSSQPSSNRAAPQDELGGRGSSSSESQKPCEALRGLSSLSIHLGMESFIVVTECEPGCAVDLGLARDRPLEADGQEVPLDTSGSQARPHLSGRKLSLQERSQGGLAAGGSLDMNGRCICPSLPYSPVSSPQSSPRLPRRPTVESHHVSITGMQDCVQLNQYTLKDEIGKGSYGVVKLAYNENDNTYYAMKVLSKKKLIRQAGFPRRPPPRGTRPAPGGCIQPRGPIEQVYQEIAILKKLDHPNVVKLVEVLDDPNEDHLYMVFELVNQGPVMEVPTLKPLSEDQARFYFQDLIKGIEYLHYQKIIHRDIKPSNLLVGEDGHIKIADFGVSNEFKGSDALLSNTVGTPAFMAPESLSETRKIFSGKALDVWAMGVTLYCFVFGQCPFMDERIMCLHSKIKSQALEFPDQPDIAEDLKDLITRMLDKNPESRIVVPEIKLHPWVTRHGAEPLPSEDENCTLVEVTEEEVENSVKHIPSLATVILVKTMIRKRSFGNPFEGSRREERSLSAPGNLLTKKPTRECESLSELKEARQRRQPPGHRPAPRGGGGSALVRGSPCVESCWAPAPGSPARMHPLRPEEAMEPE

[32] = biological target: Histamine H1 receptor (Homo sapiens) (UniProt P35367); experiment: H1 (h) CEREP ligand profiling; details: filed as antagonist, Compound concentration 10.0 uM
[33] = biological target: Serine/threonine-protein kinase SIK3 (Homo sapiens) (UniProt Q9Y2K2); details: Compound concentration 1000.0 nM
Serine/threonine-protein kinase SIK3 (Homo sapiens), sequence (Q9Y2K2 whole entry, looked up): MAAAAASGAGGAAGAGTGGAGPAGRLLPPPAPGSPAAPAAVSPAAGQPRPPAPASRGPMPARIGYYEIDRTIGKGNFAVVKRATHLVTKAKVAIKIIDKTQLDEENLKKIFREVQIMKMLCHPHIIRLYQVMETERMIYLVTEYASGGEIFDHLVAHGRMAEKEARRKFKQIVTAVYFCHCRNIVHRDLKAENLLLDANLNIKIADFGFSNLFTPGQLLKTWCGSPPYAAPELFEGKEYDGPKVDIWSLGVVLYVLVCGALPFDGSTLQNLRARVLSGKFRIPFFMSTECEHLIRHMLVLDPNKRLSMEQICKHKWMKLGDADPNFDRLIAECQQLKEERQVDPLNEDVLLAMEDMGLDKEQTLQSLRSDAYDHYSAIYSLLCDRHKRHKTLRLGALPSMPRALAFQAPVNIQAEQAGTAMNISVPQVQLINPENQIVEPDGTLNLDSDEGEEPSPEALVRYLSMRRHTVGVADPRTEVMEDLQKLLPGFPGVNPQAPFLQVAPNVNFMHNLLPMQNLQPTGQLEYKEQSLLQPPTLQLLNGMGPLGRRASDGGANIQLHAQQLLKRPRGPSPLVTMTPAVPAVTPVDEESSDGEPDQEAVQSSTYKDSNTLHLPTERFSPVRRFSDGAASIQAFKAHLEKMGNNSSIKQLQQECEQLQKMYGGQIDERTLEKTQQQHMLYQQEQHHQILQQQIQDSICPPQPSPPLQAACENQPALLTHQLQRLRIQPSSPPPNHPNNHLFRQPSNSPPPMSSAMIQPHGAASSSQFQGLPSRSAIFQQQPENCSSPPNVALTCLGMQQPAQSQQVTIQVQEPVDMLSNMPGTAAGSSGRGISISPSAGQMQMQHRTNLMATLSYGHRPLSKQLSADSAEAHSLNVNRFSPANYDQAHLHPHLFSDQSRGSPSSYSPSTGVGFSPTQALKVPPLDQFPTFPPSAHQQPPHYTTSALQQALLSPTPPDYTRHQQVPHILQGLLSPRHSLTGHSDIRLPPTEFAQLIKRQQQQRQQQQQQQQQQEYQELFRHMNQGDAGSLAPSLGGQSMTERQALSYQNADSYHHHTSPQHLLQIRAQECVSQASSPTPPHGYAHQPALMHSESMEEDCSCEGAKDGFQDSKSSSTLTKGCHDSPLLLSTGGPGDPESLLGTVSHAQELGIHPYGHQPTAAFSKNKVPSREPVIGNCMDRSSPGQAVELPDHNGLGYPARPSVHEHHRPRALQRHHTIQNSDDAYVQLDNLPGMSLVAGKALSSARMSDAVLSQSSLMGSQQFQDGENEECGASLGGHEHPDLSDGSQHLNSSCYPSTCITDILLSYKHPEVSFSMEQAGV

[34] = biological target: Cyclin-dependent kinase 4 (Homo sapiens) (UniProt P11802); details: Compound concentration 1000.0 nM
[35] = biological target: Dual specificity mitogen-activated protein kinase kinase 5 (Homo sapiens) (UniProt Q13163); details: Compound concentration 1000.0 nM
[36] = biological target: Calcium-activated potassium channel (Homo sapiens) (UniProt Q92952+Q9UGI6+Q12791+O15554+Q9H2S1+A8MYU2); experiment: SKCa channel CEREP ligand profiling; assay type: protein assay; details: filed as antagonist; Compound concentration 10.0 uM
[37] = biological target: Beta-2 adrenergic receptor (Homo sapiens) (UniProt P07550); details: Compound concentration 10.0 uM
[38] = biological target: Mitogen-activated protein kinase kinase kinase 15 (Homo sapiens) (UniProt Q6ZN16); details: Compound concentration 1000.0 nM

| SMILES | residual activity [1] [%] | residual activity [2] [%] | residual activity [3] [%] | inhibition [4] [%] | residual activity [5] [%] | residual activity [6] [%] | residual activity [7] [%] | residual activity [8] [%] | residual activity [9] [%] | residual activity [10] [%] | residual activity [11] [%] | residual activity [12] [%] | inhibition [13] [%] | inhibition [14] [%] | inhibition [15] [%] | residual activity [16] [%] | residual activity [17] [%] | residual activity [18] [%] | residual activity [19] [%] | residual activity [20] [%] | other results |
| --- | --- | --- | --- | --- | --- | --- | --- | --- | --- | --- | --- | --- | --- | --- | --- | --- | --- | --- | --- | --- | --- |
| CNC(=O)Nc1ccc2c(c1)CC[C@@]21OC(=O)N(CC(=O)N(Cc2ccc(F)cc2)[C@@H](C)C(F)(F)F)C1=O [A-485] | 100 | 95 | 84 | 9.97 | 81 | 94 | 90 | 84 | 75 | 100 | 97 | 72 | -5 | 18 | 18 | 82 | 22 | 93 | 100 | 100 | residual activity [21]: 64%; inhibition [22]: 25%; inhibition [23]: 12%; residual activity [24]: 63%; residual activity [25]: 100%; residual activity [26]: 56%; residual activity [27]: 95%; inhibition [28]: 13%; residual activity [29]: 96%; residual activity [30]: 73%; residual activity [31]: 76%; inhibition [32]: 22%; residual activity [33]: 94%; residual activity [34]: 91%; residual activity [35]: 83%; inhibition [36]: 2%; inhibition [37]: 19%; residual activity [38]: 77% |
| CNC(=O)Nc1ccc2c(c1)[C@@]1(CC2)OC(=O)N(CC(=O)N(Cc2ccc(F)cc2)[C@@H](C)C(F)(F)F)C1=O [A-486] | 100 | 100 | 92 | 0.29 | 41 | 95 | 67 | 86 | 100 | 100 | 89 | 78 | -8 | 2.22 | 17 | 76 | 99 | 100 | 100 | 100 | residual activity [21]: 66%; inhibition [22]: 22%; inhibition [23]: 4%; residual activity [24]: 60%; residual activity [25]: 100%; residual activity [26]: 100%; residual activity [27]: 96%; inhibition [28]: -3%; residual activity [29]: 100%; residual activity [30]: 100%; residual activity [31]: 99%; inhibition [32]: 7%; residual activity [33]: 100%; residual activity [34]: 75%; residual activity [35]: 89%; inhibition [36]: -7%; inhibition [37]: 24.7%; residual activity [38]: 90% |
